We go through 19 molecules from patent publication US20040116420A1 (priority 2001, published 2004).

Molecules are shown by their SMILES. A value given as a limit tells only on which side of the number the result lay.

Data set [1] deals with T1, HSV-1 protease (Human herpesvirus 1, UniProt P10210).
T1 construct: 6xHis (N); made in house; host or cells: baculovirus expression system
Description: Enzymatic assay for HSV-1 protease (assembly) inhibitor, fluorescence polarization. Format: biochemical. To be noted: read-out: HSV-1 Enzyme inhibition IC50. Put shortly: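 Fluorescence polarization read-out: after avidin stop, cleavage of a biotinylated DTAF-labelled release-site peptide by recombinant N-His6 HSV-1 protease was compared with no-inhibitor wells. Enzyme and compound were preincubated 30 min, then substrate reacted 60 min, all at room temperature, pH 7.4 citrate buffer with TCEP.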

Data set [2] has as its system HSV-1. Description: Antiviral activity, HSV-1 in Vero cells, plaque method. In kind it is cell-based. To be noted: Human alphaherpesvirus 1, 20 hours, 90% inhibition of plaque formation. Put shortly:
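This is a virus-yield read-out. The culture medium was frozen at −80° C and thawed, and the plaques it formed were counted. It came from Vero monolayers infected with 50,000 pfu HSV-1 and then exposed to the compound for 20 h at 37° C. EC90 is the concentration inhibiting 90% of plaque formation relative to the untreated infected control.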

The subject of data set [3] is Vero cells. The data set is described as follows: Cytotoxicity, Vero cells, Alamar Blue. Particulars: 25 μM, 20 hours. Format: cell-based. Put shortly:
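Living-cell ratio versus untreated control was read by Alamar Blue absorbance after about 6 h of dye incubation. Before that, Vero cells had received 25 μM test compound in 2% FBS-DMEM for 20 hours at 37 °C under 5% CO2.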
For orientation: Alamar Blue is a resazurin reagent that responds to reducing activity.

T1 sequence (P10210 1-247): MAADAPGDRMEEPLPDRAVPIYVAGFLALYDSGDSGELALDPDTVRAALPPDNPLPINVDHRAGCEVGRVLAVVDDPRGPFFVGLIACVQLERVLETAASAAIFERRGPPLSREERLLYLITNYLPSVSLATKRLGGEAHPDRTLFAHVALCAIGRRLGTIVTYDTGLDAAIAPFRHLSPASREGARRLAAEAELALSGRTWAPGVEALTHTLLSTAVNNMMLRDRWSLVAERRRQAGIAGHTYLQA

With `Cc1c(NC(=O)OC(C)(C)C)ccc2nc(N[C@H](C(=O)NCCc3ccccn3)C(C)C)oc(=O)c12` [Compound No.26, {5-Methyl-2-[2-methyl-1S-(2-pyridin-2-ylethylcarbamoyl)-propylamino]-4-oxo-4H-benzo[d][1,3]oxazin-6-yl}-carbamic acid tert-butyl ester], the IC50 in data set [1] was 3.2 µM. The same molecule gave an EC90 in data set [2] of 13 µM. For the same molecule, in data set [3], the “Cell viability (% of control)” value is listed as 107.0%.

Regarding `Cc1c(NC(=O)c2ccco2)ccc2nc(NC(C)(C)C(=O)N(C)CCc3ccccn3)oc(=O)c12` [Compound No.139, Furan-2-carboxylic acid (5-methyl-2-{1-methyl-1-[methyl-(2-pyridin-2-yl-ethyl)-carbamoyl]-ethylamino}-4-oxo-4H-benzo[d][1,3]oxazin-6-yl)-amide], the IC50 in data set [1] stood at 1.4 µM. The EC90 in data set [2] is greater than 12.5 µM. In addition, the “Cell viability (% of control)” value in data set [3] came to 90.7%.

With `CC(=O)OC(C(=O)Nc1ccc2nc(NC(C)(C)C(=O)N(C)CCc3ccccn3)oc(=O)c2c1C)c1ccccc1` (stereo not drawn) [Compound No.192, Acetic acid (5-methyl-2-{1-methyl-1-[methyl-(2-pyridin-2-yl-ethyl)-carbamoyl]-ethylamino}-4-oxo-4H-benzo[d][1,3]oxazin-6-ylcarbamoyl)-phenyl-methyl ester], the IC50 in data set [1] was found to be 7.2 µM. In data set [2], the EC90 was greater than 12.5 µM. Moreover, the “Cell viability (% of control)” value in data set [3] is 93.9%.

As for `Cc1c(NC(=O)OC(C)(C)C)ccc2nc(N3CCC[C@H]3C(=O)NCc3cccnc3)oc(=O)c12` [Compound No.87, (5-Methyl-4-oxo-2-{2S-[(pyridin-3-ylmethyl)-carbamoyl]-pyrrolidin-1-yl}-4H-benzo[d][1,3]oxazin-6-yl)-carbamic acid tert-butyl ester], the IC50 in data set [1] was 1.7 µM. The EC90 in data set [2] was greater than 12.5 µM. Besides, in data set [3], the “Cell viability (% of control)” value was determined as 92.4%.

As for `Cc1c(NC(=O)OC(C)(C)C)ccc2nc(N(C)[C@@H](Cc3ccccc3)C(=O)NCc3ccncc3)oc(=O)c12` [Compound No.80, [5-Methyl-2-(methyl-{2-phenyl-1S-[(pyridin-4-ylmethyl)-carbamoyl]-ethyl}-amino)-4-oxo-4H-benzo[d][1,3]oxazin-6-yl]-carbamic acid tert-butyl ester], the IC50 in data set [1] is 0.9 µM. In addition, the concentration for an effect of 90% (EC90) in data set [2] stood at 5.9 µM. For the same molecule, the “Cell viability (% of control)” value in data set [3] is listed as 48.0%.

For the molecule `Cc1c(NC(=O)OC(C)(C)C)ccc2nc(N[C@H](C(=O)N(C)CCc3ccccn3)C(C)(C)C)oc(=O)c12` [Compound No.44, (2-{2,2-dimethyl-1S-[methyl-(2-pyridin-2-yl-ethyl)-carbamoyl]-propylamino}-5-methyl-4-oxo-4H-benzo[d][1,3]oxazin-6-yl)-carbamic acid tert-butyl ester], in data set [1], the IC50 was greater than 20 µM. In data set [2], this molecule displayed an EC90 of 5.9 µM. Also, in data set [3], the “Cell viability (% of control)” value was found to be 66.2%.

As for `Cc1c(NC(=O)c2ccc(Cl)cc2)ccc2nc(NC(C)(C)C(=O)N(C)CCc3ccccn3)oc(=O)c12` [Compound No.153, 4-Chloro-N-(5-methyl-2-{1-methyl-1-[methyl-(2-pyridin-2-yl-ethyl)-carbamoyl]-ethylamino}-4-oxo-4H-benzo[d][1,3]oxazin-6-yl)-benzamide], in data set [1], the IC50 was found to be 2.6 µM. In data set [2], this molecule returned an EC90 of 6.2 µM. Further, the “Cell viability (% of control)” value in data set [3] worked out at 48.6%.

Turning to `Cc1c(NC(=O)c2cccc(C#N)c2)ccc2nc(NC(C)(C)C(=O)N(C)CCc3ccccn3)oc(=O)c12` [Compound No.143, 3-Cyano-N-(5-methyl-2-{1-methyl-1-[methyl-(2-pyridin-2-yl-ethyl)-carbamoyl]-ethylamino}-4-oxo-4H-benzo[d][1,3]oxazin-6-yl)-benzamide], the IC50 in data set [1] is 3.7 µM. Also, in data set [2], the EC90 is greater than 12.5 µM. For the same molecule, the “Cell viability (% of control)” value in data set [3] is 86.9%.

In the case of `Cc1c(NC(=O)OC(C)(C)C)ccc2nc(N3Cc4ccccc4C[C@H]3C(=O)NCc3cccnc3)oc(=O)c12` [Compound No.95, (5-Methyl-4-oxo-2-{3S-[(pyridin-3-ylmethyl)-carbamoyl]-3,4-dihydro-1H-isoquinolin-2-yl}-4H-benzo[d][1,3]oxazin-6-yl)-carbamic acid tert-butyl ester], the IC50 in data set [1] was determined as 4.4 µM. The same molecule registered an EC90 in data set [2] of 12.3 µM. The “Cell viability (% of control)” value in data set [3] came out at 44.0%.

Consider `COc1ccc(C(=O)Nc2ccc3nc(NC(C)(C)C(=O)N(C)CCc4ccccn4)oc(=O)c3c2C)cc1` [Compound No.163, 4-Methoxy-N-(5-methyl-2-{1-methyl-1-[methyl-(2-pyridin-2-yl-ethyl)-carbamoyl]-ethylamino}-4-oxo-4H-benzo[d][1,3]oxazin-6-yl)-benzamide], for which, in data set [1], the IC50 came out at 1.3 µM. This molecule displayed an EC90 in data set [2] of 10.7 µM. The “Cell viability (% of control)” value in data set [3] is 66.0%.

`Cc1c(NC(=O)OC(C)(C)C)ccc2nc(N3CCC[C@H]3C(=O)NCc3ccccn3)oc(=O)c12` [Compound No.86, (5-Methyl-4-oxo-2-{2S-[(pyridin-2-ylmethyl)-carbamoyl]-pyrrolidin-1-yl}-4H-benzo[d][1,3]oxazin-6-yl)-carbamic acid tert-butyl ester]: the IC50 in data set [1] amounted to 1.1 µM. Besides, in data set [2], the EC90 was greater than 12.5 µM. Also, in data set [3], the “Cell viability (% of control)” value was 94.6%.

Turning to `Cc1oc(C(C)(C)C)cc1C(=O)Nc1ccc2nc(NC(C)(C)C(=O)N(C)CCc3ccccn3)oc(=O)c2c1C` [Compound No.174, 5-tert-Butyl-2-methyl-furan-3-carboxylic acid (5-methyl-2-{1-methyl-1-[methyl-(2-pyridin-2-yl-ethyl)-carbamoyl]-ethylamino}-4-oxo-4H-benzo[d][1,3]oxazin-6-yl)-amide], in data set [1], the IC50 was found to be 9.3 µM. Besides, in data set [2], the EC90 is greater than 12.5 µM. In addition, the “Cell viability (% of control)” value in data set [3] is on record as 30.1%.

For `Cc1ccccc1C(=O)Nc1ccc2nc(NC(C)(C)C(=O)N(C)CCc3ccccn3)oc(=O)c2c1C` [Compound No.156, 2-Methyl-N-(5-methyl-2-{1-methyl-1-[methyl-(2-pyridin-2-yl-ethyl)-carbamoyl]-ethylamino}-4-oxo-4H-benzo[d][1,3]oxazin-6-yl)-benzamide], the IC50 in data set [1] is 3.8 µM. In data set [2], this molecule gave an EC90 greater than 12.5 µM. Moreover, the “Cell viability (% of control)” value in data set [3] is reported as 78.0%.

In the case of `Cc1c(NC(=O)OC(C)(C)C)ccc2nc(N(C)[C@@H](C)C(=O)NCc3cccnc3)oc(=O)c12` [Compound No.72, [5-Methyl-2-(methyl-{1S-[(pyridin-3-ylmethyl)-carbamoyl]-ethyl}-amino)-4-oxo-4H-benzo[d][1,3]oxazin-6-yl]-carbamic acid tert-butyl ester], the IC50 in data set [1] is 1.1 µM. The same molecule returned an EC90 in data set [2] greater than 12.5 µM. Moreover, the “Cell viability (% of control)” value in data set [3] is reported as 90.7%.

`Cc1c(NC(=O)OC(C)(C)C)ccc2nc(N3CCCC[C@H]3C(=O)NCc3cccnc3)oc(=O)c12` [Compound No.103, (5-Methyl-4-oxo-2-{2S-[(pyridin-3-ylmethyl)-carbamoyl]-piperidin-1-yl}-4H-benzo[d][1,3]oxazin-6-yl)-carbamic acid tert-butyl ester]: the half-inhibitory concentration (IC50) in data set [1] came out at 2.6 µM. Also, the EC90 in data set [2] is greater than 12.5 µM. For the same molecule, in data set [3], the “Cell viability (% of control)” value is listed as 68.9%.

In the case of `Cc1c(NC(=O)c2ccccc2F)ccc2nc(NC(C)(C)C(=O)N(C)CCc3ccccn3)oc(=O)c12` [Compound No.147, 2-Fluoro-N-(5-methyl-2-{1-methyl-1-[methyl-(2-pyridin-2-yl-ethyl)-carbamoyl]-ethylamino}-4-oxo-4H-benzo[d][1,3]oxazin-6-yl)-benzamide], the IC50 in data set [1] came out at 1.6 µM. For the same molecule, the EC90 in data set [2] was 10.2 µM. In data set [3], the “Cell viability (% of control)” value came out at 70.2%.

On to `Cc1c(NC(=O)CCCNC(=O)c2ccccn2)ccc2nc(NC(C)(C)C(=O)N(C)CCc3ccccn3)oc(=O)c12` [Compound No.221, Pyridine-2-carboxylic acid [3-(5-methyl-2-{1-methyl-1-[methyl-(2-pyridin-2-yl-ethyl)-carbamoyl]-ethylamino}-4-oxo-4H-benzo[d][1,3]oxazin-6-ylcarbamoyl)-propyl]-amide], for which the IC50 in data set [1] stood at 0.7 µM. In addition, the EC90 in data set [2] is greater than 12.5 µM. Further, the “Cell viability (% of control)” value in data set [3] worked out at 105.3%.

For the molecule `Cc1c(NC(=O)OC(C)(C)C)ccc2nc(N[C@H](C(=O)N(C)CCc3ccccn3)C(C)C)oc(=O)c12` [Compound No.45, (5-Methyl-2-{2-methyl-1S-[methyl-(2-pyridin-2-yl-ethyl)-carbamoyl]-propylamino}-4-oxo-4H-benzo[d][1,3]oxazin-6-yl)-carbamic acid tert-butyl ester], the IC50 in data set [1] was found to be 1.7 µM. Also, the EC90 in data set [2] stood at 6.6 µM. The “Cell viability (% of control)” value in data set [3] turned out to be 107.0%.

Consider `Cc1c(NC(=O)OC(C)(C)C)ccc2nc(N(C)[C@@H](C)C(=O)N(C)CCc3cccnc3)oc(=O)c12` [Compound No.77, [5-Methyl-2-(methyl-{1S-[methyl-(2-pyridin-3-yl-ethyl)-carbamoyl]-ethyl}-amino)-4-oxo-4H-benzo[d][1,3]oxazin-6-yl]-carbamic acid tert-butyl ester], for which, in data set [1], the IC50 turned out to be 1.8 µM. Moreover, in data set [2], the EC90 was greater than 12.5 µM. Also, the “Cell viability (% of control)” value in data set [3] turned out to be 94.4%.

Broadly, the IC50 is the concentration that gives 50% inhibition. As usually defined, the EC90 is the concentration at which the effect reaches the 90% level.
